Reference: US20230201209A1, “PHARMACEUTICAL COMPOSITION FOR PREVENTING OR TREATING CANCER CONTAINING ANTIVIRAL AGENT AND ANTIDEPRESSANT AS ACTIVE INGREDIENTS” (FRONTBIO INC., priority 2020, published 2023)
Like-named read-outs stand apart in the source and are kept apart here.

System: various cancer cells
Assay: MTT analysis, summary statements on various cancer cells
Type: cell-based
Experimental: Specifically, ASPC-1 cell line, which is a pancreatic cancer cell line, and HCT116 cell line, which is a colon cancer cell line, was incubated in a 100 mm culture dish using DMEM-10% FBS under 5% CO2 at 37° C., inoculated into each well of a 96-well plate at 20% confluence, and incubated for 24 hours. The incubated cell lines were treated with efavirenz at a concentration of 2 μM and fluoxetine at a concentration of 2 μM alone or in combination and cultured in a CO2 incubator for 24 hours. The culture medium was removed from each well, 100 pl of a fresh culture medium was added, and 10 μl of a 12 mM MTT stock solution (5 mg MTT/PBS) was added, and incubation was performed at 37° C. for 2 hours. Thereafter, 100 pl of SDS-HCl solution (1 g SDS/10 ml 0.01 M HCl), which was a reaction terminating solution, was added, incubation was performed at 37° C. for 4 hours, and OD was measured at 570 nm using a microplate leader. Percentage (%) growth inhibition was calculated by comparing the OD thus measured to the OD of the cells not treated with drugs.

[1] = treated singly or in a complex, mixed or combined manner, MTT analysis

CN(C)CCC=C1c2ccccc2CCc2ccccc21 [amitriptyline]
growth inhibitory effect in cancer cells [1]: a growth inhibitory effect is exerted

Clc1ccc2c(c1)C(N1CCNCC1)=Nc1ccccc1O2 [amoxapine]
growth inhibitory effect in cancer cells [1]: a growth inhibitory effect is exerted

COC(=O)N[C@H](C(=O)N[C@@H](Cc1ccccc1)[C@@H](O)CN(Cc1ccc(-c2ccccn2)cc1)NC(=O)[C@@H](NC(=O)OC)C(C)(C)C)C(C)(C)C [atazanavir]
growth inhibitory effect in cancer cells [1]: a growth inhibitory effect is exerted

CN(C)CCCN1c2ccccc2CCc2ccc(Cl)cc21 [clomipramine]
growth inhibitory effect in cancer cells [1]: a growth inhibitory effect is exerted

CC(C)CN(C[C@@H](O)[C@H](Cc1ccccc1)NC(=O)O[C@H]1CO[C@H]2OCC[C@H]21)S(=O)(=O)c1ccc(N)cc1 [darunavir]
growth inhibitory effect in cancer cells: a growth inhibitory effect is exerted

CNCCCN1c2ccccc2CCc2ccccc21 [desipramine]
growth inhibitory effect in cancer cells [1]: a growth inhibitory effect is exerted

CNCC[C@H](Oc1cccc2ccccc12)c1cccs1 [duloxetine]
growth inhibitory effect in cancer cells: a growth inhibitory effect is exerted

O=C1Nc2ccc(Cl)cc2[C@@](C#CC2CC2)(C(F)(F)F)O1 [efavirenz]
growth inhibitory effect in cancer cells [1]: a growth inhibitory effect is exerted

Cc1cc(C#N)cc(C)c1Oc1nc(Nc2ccc(C#N)cc2)nc(N)c1Br [etravirine]
growth inhibitory effect in cancer cells [1]: a growth inhibitory effect is exerted

CNCCC(Oc1ccc(C(F)(F)F)cc1)c1ccccc1 (centres unmarked) [fluoxetine]
growth inhibitory effect in cancer cells [1]: a growth inhibitory effect is exerted

COCCCC/C(=N\OCCN)c1ccc(C(F)(F)F)cc1 [fluvoxamine]
growth inhibitory effect in cancer cells [1]: a growth inhibitory effect is exerted

Cc1cccc(C)c1OCC(=O)N[C@@H](Cc1ccccc1)[C@@H](O)C[C@H](Cc1ccccc1)NC(=O)[C@H](C(C)C)N1CCCNC1=O [lopinavir]
growth inhibitory effect in cancer cells [1]: a growth inhibitory effect is exerted

CNCCCC12CCC(c3ccccc31)c1ccccc12 [maprotyline, maprotiline]
growth inhibitory effect in cancer cells [1]: a growth inhibitory effect is exerted

CN(C)CCC=C1c2ccccc2C(C)(C)c2ccccc21 [melitracene, melitracen]
growth inhibitory effect in cancer cells [1]: a growth inhibitory effect is exerted

CN(C)C(=N)NC(=N)N [metformin]
growth inhibitory effect in cancer cells [1]: a growth inhibitory effect is exerted

CNCCC=C1c2ccccc2CCc2ccccc21 [nortriptyline]
growth inhibitory effect in cancer cells [1]: a growth inhibitory effect is exerted

Fc1ccc([C@@H]2CCNC[C@H]2COc2ccc3c(c2)OCO3)cc1 [paroxetine]
growth inhibitory effect in cancer cells [1]: a growth inhibitory effect is exerted

CNCCCC1c2ccccc2C=Cc2ccccc21 [protriptyline]
growth inhibitory effect in cancer cells [1]: a growth inhibitory effect is exerted

CC(C)c1nc(CN(C)C(=O)N[C@H](C(=O)N[C@@H](Cc2ccccc2)C[C@H](O)[C@H](Cc2ccccc2)NC(=O)OCc2cncs2)C(C)C)cs1 [ritonavir]
growth inhibitory effect in cancer cells [1]: a growth inhibitory effect is exerted

CC(CN(C)C)CN1c2ccccc2CCc2ccccc21 (centres unmarked) [trimipramine]
growth inhibitory effect in cancer cells [1]: a growth inhibitory effect is exerted
